Measurements published in PMC12396409, “Screening and hit evaluation of a microbial metabolite library against the pathogenic Plasmodium falciparum and Toxoplasma gondii parasites” (International Journal for Parasitology: Drugs and Drug …, 2025).
Where two headings read alike, the source gives them in different places.

How the values were obtained:
[1] = system: P. falciparum 3D7 parasites; assay: P. falciparum growth inhibition assay, 2-cycle (120 h treatment), delayed-death screen and dose-response; assay type: cell-based, Plasmodium falciparum; details: for activity at 2 µg/mL: Plasmodium falciparum, 3D7
[2] = system: P. falciparum 3D7 parasites; assay: P. falciparum growth inhibition assay, 1-cycle (72 h treatment), SYBR DNA staining (library screen at 2 μg/mL and dose-response); assay type: cell-based, Plasmodium falciparum; details: for activity at 2 µg/mL: Plasmodium falciparum, 3D7
[3] = system: T. gondii RH strain (RH-Tub-eYFP) tachyzoites; assay: microbe, parasite or virus in culture; assay type: cell-based, Toxoplasma gondii; details: 72 h, 72 h; for percent parasite growth at 2 µg/mL: Toxoplasma gondii
[4] = library screen at 2 μg/mL, 120 h, % growth, replicate 1, read-out: Pf_120h_%Growth_Rep1
[5] = library screen at 2 μg/mL, 120 h, % growth, replicate 2, read-out: Pf_120h_%Growth_Rep2
[6] = library screen at 2 μg/mL, 72 h, % growth, replicate 1, read-out: Pf_72h_%Growth_Rep1
[7] = library screen at 2 μg/mL, 72 h, % growth, replicate 2, read-out: Pf_72h_%Growth_Rep2
[8] = library screen at 2 μg/mL, % growth, replicate 1, read-out: Tg_72h_%Growth_Rep1
[9] = library screen at 2 μg/mL, % growth, replicate 2, read-out: Tg_72h_%Growth_Rep2
[10] = library screen at 2 μg/mL, 120 h, % growth, replicate 1
[11] = library screen at 2 μg/mL, 120 h, % growth, replicate 2
[12] = library screen at 2 μg/mL, 72 h, % growth, replicate 1
[13] = library screen at 2 μg/mL, 72 h, % growth, replicate 2
[14] = library screen at 2 μg/mL, % growth, replicate 1
[15] = library screen at 2 μg/mL, % growth, replicate 2
[16] = P. falciparum, 120 h, screen at 2 μg/mL, replicate 1
[17] = P. falciparum, 120 h, screen at 2 μg/mL, replicate 2
[18] = P. falciparum, 72 h, screen at 2 μg/mL, replicate 1
[19] = P. falciparum, 72 h, screen at 2 μg/mL, replicate 2
[20] = T. gondii, screen at 2 μg/mL, replicate 1
[21] = T. gondii, screen at 2 μg/mL, replicate 2
[22] = P. falciparum 3D7, 120 h, library screen at 2 μg/mL, % growth, replicate 1
[23] = P. falciparum 3D7, 120 h, library screen at 2 μg/mL, % growth, replicate 2
[24] = P. falciparum 3D7, 72 h, library screen at 2 μg/mL, % growth, replicate 1
[25] = P. falciparum 3D7, 72 h, library screen at 2 μg/mL, % growth, replicate 2
[26] = T. gondii RH, library screen at 2 μg/mL, % growth, replicate 1
[27] = T. gondii RH, library screen at 2 μg/mL, % growth, replicate 2

`CC[C@H](C)[C@H]1O[C@]2(C=C[C@@H]1C)C[C@@H]1C[C@@H](C/C=C(\C)[C@@H](O[C@H]3C[C@H](OC)[C@@H](O[C@H]4C[C@H](OC)[C@@H](O)[C@H](C)O4)[C@H](C)O3)[C@@H](C)/C=C/C=C3\CO[C@@H]4[C@H](O)C(C)=C[C@@H](C(=O)O1)[C@]34O)O2` [Avermectin B1a] was tested, and the activity at 2 µg/mL [1, 4] was 3.33%, the activity at 2 µg/mL [1, 5] was 5.47% and the activity at 2 µg/mL [2, 6] was 3.24%. It also gave an activity at 2 µg/mL [2, 7] of 3.85%, a percent parasite growth at 2 µg/mL [3, 8] of 81.9% and a percent parasite growth at 2 µg/mL [3, 9] of 76.2%.
Work on `CN1C(=O)c2ccccc2-n2c(nc3ccccc3c2=O)[C@@]12O[C@H]2c1ccccc1` [Benzomalvin C] yielded a Pf_120h_%Growth_Rep1 [1, 10] of 69.94%, a Pf_120h_%Growth_Rep2 [1, 11] of 71.59% and a Pf_72h_%Growth_Rep1 [2, 12] of 80.29%. The Pf_72h_%Growth_Rep2 [2, 13] was 84.20%, the Tg_72h_%Growth_Rep1 [3, 14] was 89.14% and the Tg_72h_%Growth_Rep2 [3, 15] was 100.15%.
In the case of `CCCCCCCCCC(=O)N[C@H]1CCOC1=O` [Decanoyl-L-homoserine lactone], the Pf_120h_%Growth_Rep1 [1, 16] was 108.94%, the Pf_120h_%Growth_Rep2 [1, 17] was 93.89% and the Pf_72h_%Growth_Rep1 [2, 18] was 85.38%. It also gave a Pf_72h_%Growth_Rep2 [2, 19] of 85.76%, a Tg_72h_%Growth_Rep1 [3, 20] of 132.23% and a Tg_72h_%Growth_Rep2 [3, 21] of 94.38%.
For `O=C1C=CC(=O)c2c(O)cccc21` [BIA-J1739], the Pf_120h_%Growth_Rep1 [1, 22] was 84.54%, the Pf_120h_%Growth_Rep2 [1, 23] was 95.25% and the Pf_72h_%Growth_Rep1 [2, 24] was 80.59%. For the same molecule, the Pf_72h_%Growth_Rep2 [2, 25] was 97.69%, the Tg_72h_%Growth_Rep1 [3, 26] was 123.29% and the Tg_72h_%Growth_Rep2 [3, 27] was 97.98%.
Molecule `C=CC(C)(C)[C@]12C[C@@H]3C(=O)Nc4ccccc4C(=O)N3[C@H]1N(C(C)=O)c1ccccc12` [Acetylaszonalenin] has a Pf_120h_%Growth_Rep1 [1, 10] of 140.03%, a Pf_120h_%Growth_Rep2 [1, 11] of 96.89% and a Pf_72h_%Growth_Rep1 [2, 12] of 98.36%. The Pf_72h_%Growth_Rep2 [2, 13] was 85.99%, the Tg_72h_%Growth_Rep1 [3, 14] was 84.46% and the Tg_72h_%Growth_Rep2 [3, 15] was 90.00%.
`COc1cc(/C=C/C(=O)O)cc(OC)c1O` [Sinapic acid] showed a Pf_120h_%Growth_Rep1 ([1]; P. falciparum, 120 h, parasite screen 2 μg/mL, % growth, replicate 1) of 115.97%, a Pf_120h_%Growth_Rep2 ([1]; P. falciparum, 120 h, parasite screen 2 μg/mL, % growth, replicate 2) of -9.79% and a Mean ([2]; P. falciparum, 72 h, 2 μg/mL, mean of both replicates, growth (% of control)) of 45.98. The Pf_72h_%Growth_Rep1 ([2]; P. falciparum, 72 h, parasite screen 2 μg/mL, % growth, replicate 1) was 90.37%, the Pf_72h_%Growth_Rep2 ([2]; P. falciparum, 72 h, parasite screen 2 μg/mL, % growth, replicate 2) was 1.58% and the Tg_72h_%Growth_Rep1 ([3]; T. gondii, parasite screen 2 μg/mL, % growth, replicate 1) was 101.84%. The Tg_72h_%Growth_Rep2 ([3]; T. gondii, parasite screen 2 μg/mL, % growth, replicate 2) was 75.80%.
For `COC(=O)c1cc(O)cc(OC)c1Oc1cc(C)cc(O)c1C(=O)O` [Asterric Acid], the activity at 2 µg/mL [1, 4] was 145%, the activity at 2 µg/mL [1, 5] was 103% and the activity at 2 µg/mL [2, 6] was 98.8%. It also gave an activity at 2 µg/mL [2, 7] of 86.1%, a percent parasite growth at 2 µg/mL [3, 8] of 79.1% and a percent parasite growth at 2 µg/mL [3, 9] of 94.1%.
With `C=C1c2c(Cl)ccc(O)c2C(=O)C2=C(O)[C@]3(O)C(=O)C(C(N)=O)=C(O)[C@@H](N(C)C)[C@@H]3[C@@H](O)[C@H]12` [BIA-M1464] the Pf_120h_%Growth_Rep1 [1, 22] was 99.01%, the Pf_120h_%Growth_Rep2 [1, 23] was 114.33% and the Pf_72h_%Growth_Rep1 [2, 24] was 76.80%. The Pf_72h_%Growth_Rep2 [2, 25] was 116.17%, the Tg_72h_%Growth_Rep1 [3, 26] was 124.80% and the Tg_72h_%Growth_Rep2 [3, 27] was 96.61%.
`CCC(C)CCCCCCC(=O)N[C@H]1[C@H](Oc2c3cc4cc2Oc2ccc(cc2Cl)[C@@H](O[C@@H]2O[C@H](CO)[C@@H](O)[C@H](O)[C@H]2NC(C)=O)[C@@H]2NC(=O)[C@H](NC(=O)[C@@H]4NC(=O)[C@H]4NC(=O)[C@@H](Cc5ccc(c(Cl)c5)O3)NC(=O)[C@H](N)c3ccc(O)c(c3)Oc3cc(O)cc4c3)c3ccc(O)c(c3)-c3c(O[C@H]4O[C@H](CO)[C@@H](O)[C@H](O)[C@@H]4O)cc(O)cc3[C@@H](C(=O)O)NC2=O)O[C@H](CO)[C@@H](O)[C@@H]1O` (stereo partly shown) [Teicoplanin A2-4] showed a Pf_120h_%Growth_Rep1 [1, 16] of 64.36%, a Pf_120h_%Growth_Rep2 [1, 17] of 53.42% and a Pf_72h_%Growth_Rep1 [2, 18] of 81.32%. The Pf_72h_%Growth_Rep2 [2, 19] was 78.26%, the Tg_72h_%Growth_Rep1 [3, 20] was 112.03% and the Tg_72h_%Growth_Rep2 [3, 21] was 79.02%.
`C=C1CC[C@H]2[C@@](C)(CC[C@H]3C(C)(C)[C@@H](OC(C)=O)CC[C@]23C)[C@@H]1Cc1c(O)cc(C)oc1=O` [Aszonapyrone A] was tested, and the Pf_120h_%Growth_Rep1 [1, 10] was 67.56%, the Pf_120h_%Growth_Rep2 [1, 11] was 67.36% and the Pf_72h_%Growth_Rep1 [2, 12] was 77.27%. For the same molecule, the Pf_72h_%Growth_Rep2 [2, 13] was 75.32%, the Tg_72h_%Growth_Rep1 [3, 14] was 111.51% and the Tg_72h_%Growth_Rep2 [3, 15] was 88.05%.
